Data from patent US8012967B2, “Minor groove binders” (University of Strathclyde, priority 2006, dated 2011).
Read-outs that look alike come from different tables or passages of the source.

Columns and labels:
[1] = tested on: Staphylococcus aureus Strain 2 (NCTC 6571); assay: MIC, Staphylococcus aureus Strain 2; assay type: cell-based; settings: Staphylococcus aureus, NCTC6571, read-out: Minimum inhibitory concentrations (MICs), S. aureus 2
Method in brief: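 Broth microdilution with doubling dilutions of compound in Mueller-Hinton Broth, incubated at 37° C. MIC read from the colour pattern in the wells. Sterility and growth controls included.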

[2] = tested on: S. aureus LS-1; assay: S. aureus infection model in mice, minimal effective dose; assay type: in vivo; parameters: Development of swollen joints following infection: unit not given here; settings: for Development of swollen joints following infection: mice
Description: In relation to the methods described in J. Med. Microbiol. 46, 208-213 (1997), compounds may be evaluated in vivo using a model S. Aureus strain LS-1 which, when injected intravenously into mice, consistently causes transient bacteraemia followed by joint localization in 3-4 days. Normal control mice show inflammation of 50-60% of their joints within 3-4 days. The severity of joint sepsis was measured using calipers to determine the diameter of the affected joints. In general, five groups of mice normally having a mean weight of between 18-28 g (5 mice per group) are used for each compound tested, wherein each group is infected with S. Aureus and then provided with a certain dose of the compound to be tested (with one group acting a control).
Determination of minimal effective dose of title compound of Example 2 in S. aureus infection model.
Mice were infected with S. aureus LS-1 (50 million cfu by iv injection) and treated with graded doses of the compound of Example 2 (iv injection within 30 minutes). Each group contained 5 mice and comprised the following.
Group 1: S. aureus LS-1 only
Group 2: S. aureus LS-1 plus 60 mg/kg of the compound of Example 2
Group 3: S. aureus LS-1 plus 40 mg/kg of the compound of Example 2
Group 4: S. aureus LS-1 plus 20 mg/kg of the compound of Example 2
Group 5: S. aureus LS-1 plus 10 mg/kg of the compound of Example 2
Mice were assessed daily for weight loss, development of swollen joints and morbidity/mortality.

Cn1cc(NC(=O)c2cc(NC(=O)c3ccc(/C=C/c4cnc5ccccc5c4)cc3)cn2C)cc1C(=O)NCCN1CCOCC1 [Example 2, 1-Methyl-4-({[1-methyl-4-({4-[(E)-2-(3-quinolinyl)ethenyl]benzoyl}amino)-1H-pyrrol-2-yl]carbonyl}amino)-N-[2-(4-morpholinyl)ethyl]-1H-pyrrole-2-carboxamide]
MIC ([1]; value in parentheses, na = not active): 0.25 µg/mL | MIC ([1]; value outside parentheses): 0.32 µM | Weight loss of mice after infection: Mean mouse weight (g) after ([2]; Group 2, 60 mg/kg iv, Day 2): 27.1 g | Weight loss of mice after infection: Mean mouse weight (g) after ([2]; Group 2, 60 mg/kg iv, Day 5): 26.3 g | Weight loss of mice after infection: Mean mouse weight (g) after ([2]; Group 2, 60 mg/kg iv, Day 7): 26.1 g | Mortality rate of mice following infection ([2]; Group 2, 60 mg/kg iv, day 2 post infection): 0/5 | Mortality rate of mice following infection ([2]; Group 2, 60 mg/kg iv, day 3 post infection): 0/5 | Mortality rate of mice following infection ([2]; Group 2, 60 mg/kg iv, day 4 post infection): 1/5 | Mortality rate of mice following infection ([2]; Group 2, 60 mg/kg iv, day 5 post infection): 1/5 | Mortality rate of mice following infection ([2]; Group 2, 60 mg/kg iv, day 6 post infection): 1/5 | Mortality rate of mice following infection ([2]; Group 2, 60 mg/kg iv, day 7 post infection): 1/5 | Weight loss of mice after infection: Mean mouse weight (g) after ([2]; Group 3, 40 mg/kg iv, Day 2): 27.0 g | Weight loss of mice after infection: Mean mouse weight (g) after ([2]; Group 3, 40 mg/kg iv, Day 5): 26.4 g | Weight loss of mice after infection: Mean mouse weight (g) after ([2]; Group 3, 40 mg/kg iv, Day 7): 26.0 g | Mortality rate of mice following infection ([2]; Group 3, 40 mg/kg iv, day 2 post infection): 0/5 | Mortality rate of mice following infection ([2]; Group 3, 40 mg/kg iv, day 3 post infection): 0/5 | Mortality rate of mice following infection ([2]; Group 3, 40 mg/kg iv, day 4 post infection): 0/5 | Mortality rate of mice following infection ([2]; Group 3, 40 mg/kg iv, day 5 post infection): 0/5 | Mortality rate of mice following infection ([2]; Group 3, 40 mg/kg iv, day 6 post infection): 0/5 | Mortality rate of mice following infection ([2]; Group 3, 40 mg/kg iv, day 7 post infection): 0/5 | Weight loss of mice after infection: Mean mouse weight (g) after ([2]; Group 4, 20 mg/kg iv, Day 2): 27.6 g | Weight loss of mice after infection: Mean mouse weight (g) after ([2]; Group 4, 20 mg/kg iv, Day 5): 25.4 g | Weight loss of mice after infection: Mean mouse weight (g) after ([2]; Group 4, 20 mg/kg iv, Day 7): 25.1 g | Mortality rate of mice following infection ([2]; Group 4, 20 mg/kg iv, day 2 post infection): 0/5 | Mortality rate of mice following infection ([2]; Group 4, 20 mg/kg iv, day 3 post infection): 0/5 | Mortality rate of mice following infection ([2]; Group 4, 20 mg/kg iv, day 4 post infection): 0/5 | Mortality rate of mice following infection ([2]; Group 4, 20 mg/kg iv, day 5 post infection): 1/5 | Mortality rate of mice following infection ([2]; Group 4, 20 mg/kg iv, day 6 post infection): 2/5 | Mortality rate of mice following infection ([2]; Group 4, 20 mg/kg iv, day 7 post infection): 3/5 | Weight loss of mice after infection: Mean mouse weight (g) after ([2]; Group 5, 10 mg/kg iv, Day 2): 26.9 g | Weight loss of mice after infection: Mean mouse weight (g) after ([2]; Group 5, 10 mg/kg iv, Day 5): 23.0 g | Weight loss of mice after infection: Mean mouse weight (g) after ([2]; Group 5, 10 mg/kg iv, Day 7): 22.6 g | Mortality rate of mice following infection ([2]; Group 5, 10 mg/kg iv, day 2 post infection): 0/5 | Mortality rate of mice following infection ([2]; Group 5, 10 mg/kg iv, day 3 post infection): 0/5 | Mortality rate of mice following infection ([2]; Group 5, 10 mg/kg iv, day 4 post infection): 0/5 | Mortality rate of mice following infection ([2]; Group 5, 10 mg/kg iv, day 5 post infection): 0/5 | Mortality rate of mice following infection ([2]; Group 5, 10 mg/kg iv, day 6 post infection): 1/5 | Mortality rate of mice following infection ([2]; Group 5, 10 mg/kg iv, day 7 post infection): 2/5 | Development of swollen joints following infection ([2]; count n/N, Group 2, 60 mg/kg iv, day 2 post infection): 0/20 | Development of swollen joints following infection ([2]; count n/N, Group 2, 60 mg/kg iv, day 3 post infection): 0/20 | Development of swollen joints following infection ([2]; count n/N, Group 2, 60 mg/kg iv, day 4 post infection): 0/16 | Development of swollen joints following infection ([2]; count n/N, Group 2, 60 mg/kg iv, day 5 post infection): 0/16 | Development of swollen joints following infection ([2]; count n/N, Group 2, 60 mg/kg iv, day 6 post infection): 0/16 | Development of swollen joints following infection ([2]; count n/N, Group 2, 60 mg/kg iv, day 7 post infection): 0/16 | Development of swollen joints following infection ([2]; count n/N, Group 3, 40 mg/kg iv, day 2 post infection): 0/20 | Development of swollen joints following infection ([2]; count n/N, Group 3, 40 mg/kg iv, day 3 post infection): 0/20 | Development of swollen joints following infection ([2]; count n/N, Group 3, 40 mg/kg iv, day 4 post infection): 2/20 | Development of swollen joints following infection ([2]; count n/N, Group 3, 40 mg/kg iv, day 5 post infection): 3/20 | Development of swollen joints following infection ([2]; count n/N, Group 3, 40 mg/kg iv, day 6 post infection): 3/20 | Development of swollen joints following infection ([2]; count n/N, Group 3, 40 mg/kg iv, day 7 post infection): 3/20 | Development of swollen joints following infection ([2]; count n/N, Group 4, 20 mg/kg iv, day 2 post infection): 1/20 | Development of swollen joints following infection ([2]; count n/N, Group 4, 20 mg/kg iv, day 3 post infection): 1/20 | Development of swollen joints following infection ([2]; count n/N, Group 4, 20 mg/kg iv, day 4 post infection): 2/20 | Development of swollen joints following infection ([2]; count n/N, Group 4, 20 mg/kg iv, day 5 post infection): 1/16 | Development of swollen joints following infection ([2]; count n/N, Group 4, 20 mg/kg iv, day 6 post infection): 6/20 | Development of swollen joints following infection ([2]; count n/N, Group 4, 20 mg/kg iv, day 7 post infection): 4/12 | Development of swollen joints following infection ([2]; count n/N, Group 5, 10 mg/kg iv, day 2 post infection): 1/20 | Development of swollen joints following infection ([2]; count n/N, Group 5, 10 mg/kg iv, day 3 post infection): 1/20 | Development of swollen joints following infection ([2]; count n/N, Group 5, 10 mg/kg iv, day 4 post infection): 2/20 | Development of swollen joints following infection ([2]; count n/N, Group 5, 10 mg/kg iv, day 5 post infection): 2/20 | Development of swollen joints following infection ([2]; count n/N, Group 5, 10 mg/kg iv, day 6 post infection): 5/16 | Development of swollen joints following infection ([2]; count n/N, Group 5, 10 mg/kg iv, day 7 post infection): 4/12 | Development of swollen joints following infection ([2]; figure in parentheses, Group 2, 60 mg/kg iv, day 2 post infection): 0 | Development of swollen joints following infection ([2]; figure in parentheses, Group 2, 60 mg/kg iv, day 3 post infection): 0 | Development of swollen joints following infection ([2]; figure in parentheses, Group 2, 60 mg/kg iv, day 4 post infection): 0 | Development of swollen joints following infection ([2]; figure in parentheses, Group 2, 60 mg/kg iv, day 5 post infection): 0 | Development of swollen joints following infection ([2]; figure in parentheses, Group 2, 60 mg/kg iv, day 6 post infection): 0 | Development of swollen joints following infection ([2]; figure in parentheses, Group 2, 60 mg/kg iv, day 7 post infection): 0 | Development of swollen joints following infection ([2]; figure in parentheses, Group 3, 40 mg/kg iv, day 2 post infection): 0 | Development of swollen joints following infection ([2]; figure in parentheses, Group 3, 40 mg/kg iv, day 3 post infection): 0 | Development of swollen joints following infection ([2]; figure in parentheses, Group 3, 40 mg/kg iv, day 4 post infection): 10 | Development of swollen joints following infection ([2]; figure in parentheses, Group 3, 40 mg/kg iv, day 5 post infection): 15 | Development of swollen joints following infection ([2]; figure in parentheses, Group 3, 40 mg/kg iv, day 6 post infection): 15 | Development of swollen joints following infection ([2]; figure in parentheses, Group 3, 40 mg/kg iv, day 7 post infection): 15 | Development of swollen joints following infection ([2]; figure in parentheses, Group 4, 20 mg/kg iv, day 2 post infection): 5 | Development of swollen joints following infection ([2]; figure in parentheses, Group 4, 20 mg/kg iv, day 3 post infection): 5 | Development of swollen joints following infection ([2]; figure in parentheses, Group 4, 20 mg/kg iv, day 4 post infection): 10 | Development of swollen joints following infection ([2]; figure in parentheses, Group 4, 20 mg/kg iv, day 5 post infection): 6.3 | Development of swollen joints following infection ([2]; figure in parentheses, Group 4, 20 mg/kg iv, day 6 post infection): 30 | Development of swollen joints following infection ([2]; figure in parentheses, Group 4, 20 mg/kg iv, day 7 post infection): 33 | Development of swollen joints following infection ([2]; figure in parentheses, Group 5, 10 mg/kg iv, day 2 post infection): 5 | Development of swollen joints following infection ([2]; figure in parentheses, Group 5, 10 mg/kg iv, day 3 post infection): 5 | Development of swollen joints following infection ([2]; figure in parentheses, Group 5, 10 mg/kg iv, day 4 post infection): 10 | Development of swollen joints following infection ([2]; figure in parentheses, Group 5, 10 mg/kg iv, day 5 post infection): 10 | Development of swollen joints following infection ([2]; figure in parentheses, Group 5, 10 mg/kg iv, day 6 post infection): 31 | Development of swollen joints following infection ([2]; figure in parentheses, Group 5, 10 mg/kg iv, day 7 post infection): 33
